{
  "source": "patent US9782399B2",
  "about": "“Pharmaceutical compositions which inhibit FKBP52-mediated regulation of androgen receptor function and methods of using same” (The United States of America, as represented by the …, priority 2009, dated 2017)",
  "tested_on": "FKBP52-enhanced AR function",
  "assay": "AR-mediated luciferase reporter assay in 52KO MEF cells",
  "assay_type": "cell-based, murine",
  "settings": "compound 1 hour, then DHT 16 hours",
  "method": "FIG. 5B is a bar graph showing data from an experiment where 52KO MEF cells were treated at 50% confluency with a range of concentrations of Compound 2, and cell numbers were counted by trypan blue exclusion after 24 hours. FIG. 5C depicts Western blots on the same cell lysates from FIG. 5B, with compound 2 concentrations starting at 0, and increasing from about 0.1, 1, 10, to 100 μM.\nTo further characterize the compounds of interest selected from the yeast library assay, the inventors created a mammalian model system, comprising a receptor-mediated luciferase reporter assay, using in a murine embryonic fibroblast cell line (MEF) which has the gene for FKBP52 knocked out (52KO MEFs). […] To control for specificity and general toxicity, the inventors assessed the effects of the inhibitors on receptor function in the absence of FKBP52. […] The half maximal lethal dose (LD50) was also determined for all cell types used in these studies. The LD50 was determined by performing dose response curves in which the measure of toxicity will be cell death (via trypan blue exclusion). […]\nβ-galactosidase activity was measured by addition of 100 μl Tropix Gal-Screen assay reagent (Applied Biosystems, Foster City, Calif.) to about 6 μl lysate in an opaque 96-well plate. […]",
  "data": [
    {"molecule": "Cc1ccc(NC(=O)c2ccccc2C(=O)O)cc1C", "note": "[Compound 1]", "values": [
      {"measurement": "inhibition of FKBP52-enhanced AR function in mammalian cells", "value": "consistent from yeast to mammalian cells"}
    ]}
  ]
}
